Test results taken from PMC10726358 (Journal of Medicinal Chemistry, 2023).

Legend:
[1] = test system: BRD4 BD1; assay type: binding, human; conditions: TR-FRET
Method: As a strategic decision, every compound synthesized across all of GSK’s bromodomain research projects was tested in both a BRD4 BD1 and a BRD4 BD2 TR-FRET assay as part of tier 1 data generation. […] LipE is a straightforward, yet powerful metric for medicinal chemistry teams to normalize potency relative to lipophilicity, a critical factor both for parameters of the human dose equation and also for promiscuity.[43],[44] To aid interpretation, diagonal lines representing different LipE values are shown, with the most desirable space found toward the top left-hand area of the plot representing molecules with the comparatively highest potency per unit of lipophilicity.
(§1) All TR-FRET and hWB cytokine assays have been described previously.[54]

[2] = molecular target: BRD2 BD1 (Homo sapiens, UniProt P25440); experiment: BRD2 BD1 TR-FRET assay; assay type: binding
Method: (§2) The BRD4 BD1/BD2 TR-FRET assay had been used routinely for this optimization work, and in order to better understand the BET BD1 domain selectivity profile, 31 was tested in TR-FRET BRD2, BRD3, and BRDT assays.
as §1

[3] = molecular target: T1, BRD2 BD2 (Homo sapiens, UniProt P25440); experiment: BRD2 BD2 TR-FRET assay; assay type: binding
T1 construct: BRD2 BD2; purchased DiscoverX
Method: as §2, §1

[4] = molecular target: T2, BRD3 BD2 (Homo sapiens, UniProt Q15059); experiment: BRD3 BD2 TR-FRET assay; assay type: binding
Method: as §2, §1

[5] = molecular target: T3, BRDT BD1 (Homo sapiens, UniProt Q58F21); experiment: BRDT BD1 TR-FRET assay; assay type: binding
Method: as §2, §1

[6] = molecular target: T2, BRD3 BD2; experiment: BROMOscan BRD3 BD2; assay type: binding
Method: as §2
(§3) [52] BROMOscan recombinant protein binding assays were carried out at DiscoverX. (accessed April 4, 2023).

[7] = molecular target: T3, BRDT BD1; experiment: BROMOscan BRDT BD1; assay type: binding
Method: as §2, §3

[8] = molecular target: BRDT BD2 (Homo sapiens, UniProt Q58F21); experiment: BROMOscan BRDT BD2; assay type: binding
Method: as §2, §3

[9] = molecular target: T4, EP300 (Homo sapiens, UniProt Q09472); experiment: BROMOscan EP300; assay type: binding
T4 construct: The broader non-BET bromodomain selectivity was also determined in the BROMOscan assay, with the closest off-target being EP300; purchased DiscoverX
Method: as §2, §3

[10] = molecular target: T5, CREBBP (Homo sapiens, UniProt Q92793); experiment: BROMOscan CREBBP; assay type: binding
T5 construct: ≥2000-fold selectivity over all 20 non-BET bromodomains tested; purchased DiscoverX
Method: as §2, §3

[11] = molecular target: T6, ATAD2B (Homo sapiens, UniProt Q9ULI0); experiment: BROMOscan ATAD2B; assay type: binding
T6 construct: ≥2000-fold selectivity over all 20 non-BET bromodomains tested; purchased DiscoverX
Method: as §2, §3

[12] = molecular target: T7, BRD8 BD2 (Homo sapiens, UniProt Q9H0E9); experiment: BROMOscan BRD8 BD2; assay type: binding
T7 construct: BRD8 BD2; purchased DiscoverX
Method: as §2, §3

[13] = molecular target: T8, BRPF3 (Homo sapiens, UniProt Q9ULD4); experiment: BROMOscan BRPF3; assay type: binding
T8 construct: ≥2000-fold selectivity over all 20 non-BET bromodomains tested; purchased DiscoverX
Method: as §2, §3

[14] = molecular target: T9, PBRM1 BD5 (Homo sapiens, UniProt Q86U86); experiment: BROMOscan PBRM1 BD5; assay type: binding
T9 construct: PBRM1 BD5; purchased DiscoverX
Method: as §2, §3

[15] = molecular target: T10, Alpha 2C Adrenoceptor (Homo sapiens, UniProt P18825); experiment: Cross screening: Alpha 2C Adrenoceptor agonist; assay type: biochemical
T10 construct: purchased GSK enhanced cross-screening panel (in-house)

[16] = molecular target: T11, Beta2 Adrenoceptor (Homo sapiens, UniProt P07550); experiment: Cross screening: Beta2 Adrenoceptor Human Agonist; assay type: biochemical
T11 construct: purchased GSK enhanced cross-screening panel (in-house)

[17] = molecular target: T12, 5-HT3 (Homo sapiens, UniProt P46098); experiment: Cross screening: 5-HT3 Agonist; assay type: biochemical
T12 construct: purchased GSK enhanced cross-screening panel (in-house)

[18] = molecular target: T13, Dopamine D2 (Homo sapiens, UniProt P14416); experiment: Cross screening: Dopamine D2 Agonist; assay type: biochemical
T13 construct: purchased GSK enhanced cross-screening panel (in-house)

[19] = molecular target: T14, M1 (Homo sapiens, UniProt P11229); experiment: Cross screening: M1 Agonist; assay type: biochemical
T14 construct: purchased GSK enhanced cross-screening panel (in-house)

[20] = molecular target: T15, 5-HT2C (Homo sapiens, UniProt P28335); experiment: Cross screening: 5-HT2C Agonist; assay type: biochemical
T15 construct: purchased GSK enhanced cross-screening panel (in-house)

[21] = molecular target: T16, Alpha 1 nAChR (Homo sapiens, UniProt P02708+P07510+Q07001); experiment: Cross screening: Alpha 1 nAChR Antagonist; assay type: biochemical
T16 construct: purchased GSK enhanced cross-screening panel (in-house)

[22] = molecular target: T17, OPRM1 (Homo sapiens, UniProt P35372); experiment: Cross screening: OPRM1 Agonist; assay type: biochemical
T17 construct: purchased GSK enhanced cross-screening panel (in-house)

[23] = molecular target: T18, Kv1.5 (KCNA5) (Homo sapiens, UniProt P22460); experiment: Cross screening: Kv1.5 (KCNA5) blocker; assay type: biochemical
T18 construct: purchased GSK enhanced cross-screening panel (in-house)

[24] = molecular target: T19, Acetylcholinesterase (AChE) (Homo sapiens, UniProt P22303); experiment: Cross screening: Acetylcholinesterase (AChE) antagonist; assay type: biochemical
T19 construct: purchased GSK enhanced cross-screening panel (in-house)

[25] = molecular target: T20, NET (Homo sapiens, UniProt P23975); experiment: Cross screening: NET blocker; assay type: biochemical
T20 construct: purchased GSK enhanced cross-screening panel (in-house)

[26] = molecular target: T21, PDE4B (Homo sapiens, UniProt Q07343); experiment: Cross screening: PDE4B antagonist; assay type: biochemical
T21 construct: purchased GSK enhanced cross-screening panel (in-house)

[27] = molecular target: T22, Monoamine Oxidase A (Homo sapiens, UniProt P21397); experiment: Cross screening: Monoamine Oxidase A antagonist; assay type: biochemical
T22 construct: purchased GSK enhanced cross-screening panel (in-house)

[28] = molecular target: T14, M1; experiment: Cross screening: M1 antagonist; assay type: biochemical
[29] = test system: BET BD1; experiment: BET family BD1/BD2 profiling (TR-FRET, BROMOscan); assay type: binding, human
Method: as §2, §1, §3

[30] = pKa of the basic amine
[31] = Chromatographic LogD at pH 7.4
[32] = molecular target: BSEP (Homo sapiens, UniProt O95342); experiment: Cross screening: BSEP inhibitor
[33] = molecular target: OATP1B1 (Homo sapiens, UniProt Q9Y6L6); experiment: Cross screening: OATP1B1 inhibitor
[34] = test system: Phospholipoidosis induction; experiment: Cross screening: Phospholipoidosis induction

T2 sequence (Q15059 306-415 limits assumed): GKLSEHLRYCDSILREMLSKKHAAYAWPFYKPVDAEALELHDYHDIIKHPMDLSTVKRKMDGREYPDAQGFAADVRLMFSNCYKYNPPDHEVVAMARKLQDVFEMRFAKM
T14 sequence (P11229 whole entry): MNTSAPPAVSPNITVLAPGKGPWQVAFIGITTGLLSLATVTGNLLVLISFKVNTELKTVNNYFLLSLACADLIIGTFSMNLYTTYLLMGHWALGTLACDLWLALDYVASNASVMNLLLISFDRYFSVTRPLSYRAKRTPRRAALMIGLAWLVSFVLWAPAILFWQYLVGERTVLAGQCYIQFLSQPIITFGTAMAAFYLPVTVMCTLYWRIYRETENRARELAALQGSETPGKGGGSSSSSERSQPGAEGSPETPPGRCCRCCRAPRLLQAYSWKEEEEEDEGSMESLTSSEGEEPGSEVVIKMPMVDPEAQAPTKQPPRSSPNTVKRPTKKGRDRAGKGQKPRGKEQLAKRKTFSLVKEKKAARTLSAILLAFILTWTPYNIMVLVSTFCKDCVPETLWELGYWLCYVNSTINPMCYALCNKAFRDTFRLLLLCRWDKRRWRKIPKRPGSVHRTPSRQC
T4 sequence (Q09472 1049-1156 limits assumed): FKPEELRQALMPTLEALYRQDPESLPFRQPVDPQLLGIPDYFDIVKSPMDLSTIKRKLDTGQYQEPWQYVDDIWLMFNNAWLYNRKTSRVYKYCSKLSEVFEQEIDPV
Chain of BRD2 BD1 (P25440 74-180 limits assumed): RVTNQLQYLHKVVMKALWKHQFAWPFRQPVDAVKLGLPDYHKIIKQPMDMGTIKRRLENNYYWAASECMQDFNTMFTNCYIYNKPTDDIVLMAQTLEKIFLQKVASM
T7 sequence (Q9H0E9 1099-1207 limits assumed): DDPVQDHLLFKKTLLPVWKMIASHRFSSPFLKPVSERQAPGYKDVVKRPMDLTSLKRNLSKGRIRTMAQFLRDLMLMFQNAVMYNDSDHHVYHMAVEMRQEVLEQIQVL
T10 sequence (P18825 whole entry): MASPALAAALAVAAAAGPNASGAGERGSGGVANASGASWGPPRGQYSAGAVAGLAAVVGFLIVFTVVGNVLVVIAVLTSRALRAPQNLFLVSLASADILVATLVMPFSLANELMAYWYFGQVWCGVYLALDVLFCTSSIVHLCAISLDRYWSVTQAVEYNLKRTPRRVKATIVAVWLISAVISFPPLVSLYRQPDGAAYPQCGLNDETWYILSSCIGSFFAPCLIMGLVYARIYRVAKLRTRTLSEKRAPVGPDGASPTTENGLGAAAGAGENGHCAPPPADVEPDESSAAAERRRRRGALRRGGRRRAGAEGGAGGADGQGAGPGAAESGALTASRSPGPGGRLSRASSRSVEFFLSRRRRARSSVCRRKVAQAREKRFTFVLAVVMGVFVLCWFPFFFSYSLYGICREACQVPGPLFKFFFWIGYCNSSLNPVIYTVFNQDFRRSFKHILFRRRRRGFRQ
T21 sequence (Q07343 whole entry): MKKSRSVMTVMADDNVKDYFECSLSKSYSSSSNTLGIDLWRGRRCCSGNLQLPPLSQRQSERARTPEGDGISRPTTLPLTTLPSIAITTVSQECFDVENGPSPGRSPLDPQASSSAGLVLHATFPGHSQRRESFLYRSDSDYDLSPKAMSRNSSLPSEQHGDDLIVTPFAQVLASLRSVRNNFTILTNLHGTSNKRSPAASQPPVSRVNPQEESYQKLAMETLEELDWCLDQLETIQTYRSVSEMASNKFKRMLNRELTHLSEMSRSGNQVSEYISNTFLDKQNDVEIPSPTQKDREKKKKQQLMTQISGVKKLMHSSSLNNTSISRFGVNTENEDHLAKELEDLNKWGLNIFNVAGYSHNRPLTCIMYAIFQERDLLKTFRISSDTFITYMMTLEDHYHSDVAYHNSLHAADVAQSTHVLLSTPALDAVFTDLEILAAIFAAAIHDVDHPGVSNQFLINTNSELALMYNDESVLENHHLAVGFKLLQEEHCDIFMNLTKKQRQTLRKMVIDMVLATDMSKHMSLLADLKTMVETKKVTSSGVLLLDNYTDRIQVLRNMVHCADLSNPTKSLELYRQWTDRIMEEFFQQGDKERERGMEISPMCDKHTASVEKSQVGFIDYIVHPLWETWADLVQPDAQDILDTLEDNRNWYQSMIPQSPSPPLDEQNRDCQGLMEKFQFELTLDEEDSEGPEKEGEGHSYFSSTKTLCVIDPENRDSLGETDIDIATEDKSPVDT
Chain of OATP1B1 (Q9Y6L6 whole entry): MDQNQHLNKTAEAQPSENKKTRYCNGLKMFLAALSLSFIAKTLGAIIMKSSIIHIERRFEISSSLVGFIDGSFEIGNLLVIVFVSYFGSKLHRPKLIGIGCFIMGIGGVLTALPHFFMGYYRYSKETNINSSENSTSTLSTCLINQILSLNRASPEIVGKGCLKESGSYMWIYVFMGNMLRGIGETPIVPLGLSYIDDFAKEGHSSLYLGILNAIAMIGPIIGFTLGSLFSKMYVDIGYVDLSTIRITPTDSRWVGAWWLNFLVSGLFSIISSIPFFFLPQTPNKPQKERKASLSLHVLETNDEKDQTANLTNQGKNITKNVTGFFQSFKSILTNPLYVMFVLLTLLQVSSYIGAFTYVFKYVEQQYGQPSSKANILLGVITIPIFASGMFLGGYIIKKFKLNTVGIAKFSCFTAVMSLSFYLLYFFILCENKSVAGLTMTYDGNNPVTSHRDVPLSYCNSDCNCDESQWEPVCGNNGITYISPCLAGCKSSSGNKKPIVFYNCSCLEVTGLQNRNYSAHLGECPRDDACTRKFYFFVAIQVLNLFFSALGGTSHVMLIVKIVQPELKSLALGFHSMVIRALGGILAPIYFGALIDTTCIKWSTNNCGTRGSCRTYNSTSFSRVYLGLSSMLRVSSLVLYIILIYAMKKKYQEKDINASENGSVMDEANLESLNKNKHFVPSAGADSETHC
T12 sequence (P46098 24-478): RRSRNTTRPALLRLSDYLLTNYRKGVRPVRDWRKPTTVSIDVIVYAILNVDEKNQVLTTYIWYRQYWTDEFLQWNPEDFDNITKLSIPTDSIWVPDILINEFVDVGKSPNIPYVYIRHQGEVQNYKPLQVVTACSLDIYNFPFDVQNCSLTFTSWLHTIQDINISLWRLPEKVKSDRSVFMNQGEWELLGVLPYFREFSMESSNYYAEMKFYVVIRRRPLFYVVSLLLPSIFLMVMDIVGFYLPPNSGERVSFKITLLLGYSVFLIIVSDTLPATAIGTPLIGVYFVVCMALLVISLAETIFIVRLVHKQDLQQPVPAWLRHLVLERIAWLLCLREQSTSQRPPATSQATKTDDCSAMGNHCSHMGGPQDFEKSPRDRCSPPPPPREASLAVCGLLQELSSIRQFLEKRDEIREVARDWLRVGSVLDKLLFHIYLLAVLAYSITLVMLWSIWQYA
T9 sequence (Q86U86 653-763 limits assumed): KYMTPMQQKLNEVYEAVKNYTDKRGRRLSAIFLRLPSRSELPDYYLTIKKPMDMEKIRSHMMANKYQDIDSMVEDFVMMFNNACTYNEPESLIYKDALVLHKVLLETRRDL
T17 sequence (P35372 whole entry): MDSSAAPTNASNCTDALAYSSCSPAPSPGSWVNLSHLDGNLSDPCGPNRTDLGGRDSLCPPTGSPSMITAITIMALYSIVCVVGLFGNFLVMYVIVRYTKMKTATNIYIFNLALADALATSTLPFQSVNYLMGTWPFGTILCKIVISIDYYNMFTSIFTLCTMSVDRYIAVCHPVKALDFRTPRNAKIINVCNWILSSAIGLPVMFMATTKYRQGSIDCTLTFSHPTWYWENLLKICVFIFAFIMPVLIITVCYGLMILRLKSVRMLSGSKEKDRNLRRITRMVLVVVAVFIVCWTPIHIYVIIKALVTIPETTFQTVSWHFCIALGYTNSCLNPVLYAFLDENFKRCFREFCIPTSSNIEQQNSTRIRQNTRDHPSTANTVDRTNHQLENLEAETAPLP
T15 sequence (P28335 33-458): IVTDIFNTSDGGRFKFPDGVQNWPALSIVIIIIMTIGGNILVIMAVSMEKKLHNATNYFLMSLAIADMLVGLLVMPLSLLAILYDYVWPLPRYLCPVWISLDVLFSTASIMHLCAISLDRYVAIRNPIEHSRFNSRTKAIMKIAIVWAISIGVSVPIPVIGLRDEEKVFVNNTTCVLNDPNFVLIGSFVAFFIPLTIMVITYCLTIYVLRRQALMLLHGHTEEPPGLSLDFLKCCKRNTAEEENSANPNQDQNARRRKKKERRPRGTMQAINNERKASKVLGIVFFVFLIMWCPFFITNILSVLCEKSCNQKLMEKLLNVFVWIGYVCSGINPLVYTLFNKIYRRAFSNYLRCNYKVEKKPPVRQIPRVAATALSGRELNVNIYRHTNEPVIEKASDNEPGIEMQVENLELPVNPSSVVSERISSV
T8 sequence (Q9ULD4 589-693 limits assumed): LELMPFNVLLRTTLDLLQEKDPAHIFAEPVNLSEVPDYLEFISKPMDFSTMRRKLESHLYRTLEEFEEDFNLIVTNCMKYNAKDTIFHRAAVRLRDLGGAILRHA
T22 sequence (P21397 whole entry): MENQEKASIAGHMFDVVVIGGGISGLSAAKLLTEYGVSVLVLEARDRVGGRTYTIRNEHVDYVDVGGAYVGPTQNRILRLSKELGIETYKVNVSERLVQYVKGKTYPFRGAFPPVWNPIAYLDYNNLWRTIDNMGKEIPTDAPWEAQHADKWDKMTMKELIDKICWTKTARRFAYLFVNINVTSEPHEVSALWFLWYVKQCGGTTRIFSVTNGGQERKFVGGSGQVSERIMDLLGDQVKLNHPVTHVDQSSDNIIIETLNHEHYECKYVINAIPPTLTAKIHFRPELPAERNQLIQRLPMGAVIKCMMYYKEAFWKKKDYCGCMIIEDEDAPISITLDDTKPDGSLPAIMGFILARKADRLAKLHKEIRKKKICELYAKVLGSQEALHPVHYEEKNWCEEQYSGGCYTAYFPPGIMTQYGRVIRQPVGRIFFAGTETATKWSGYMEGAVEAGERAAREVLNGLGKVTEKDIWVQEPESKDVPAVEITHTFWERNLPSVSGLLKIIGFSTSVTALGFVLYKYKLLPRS
T5 sequence (Q92793 1085-1192 limits assumed): as the sequence (Q09472 1049-1156 limits assumed) above, with S47N, I73V, Y93F, S98A counted along it

SMILES: Cc1cc(-c2nc3ccccc3n2C[C@@H]2CCCN(C(=O)C3CCN(C(C)C)CC3)C2)cn(C)c1=O [Compound 31, (S)-5-(1-((1-(1-Isopropylpiperidine-4-carbonyl)piperidin-3-yl)methyl)-1H-benzo [d]imidazole-2-yl)-1,3-dimethylpyridin-2(1H)-one]
- BRD4 BD1 FRET pIC50 [1]: 7.8
- fold selectivity (BRD4 BD1 over BRD4 BD2) [1]: 1000 fold
- BRD2 BD1 TR-FRET pIC50 [2]: 8.0
- fold selectivity BRD2 BD1 over BD2 ([2]; TR-FRET): 400 fold
- BRD2 BD2 TR-FRET pIC50 [3]: 5.4
- BRD3 BD2 TR-FRET pIC50 [4]: 5.1
- BRDT BD1 TR-FRET pIC50 [5]: 7.3
- fold selectivity BRDT BD1 over BD2 ([5]; TR-FRET): 630 fold
- BROMOscan pKd BRD3 BD2 [6]: 5.8
- BROMOscan pKd BRDT BD1 [7]: 8.1
- fold selectivity BRDT BD1 over BD2 ([7]; BROMOscan): 400 fold
- BROMOscan pKd BRDT BD2 [8]: 5.5
- BROMOscan pKd EP300 [9]: 5.0
- fold selectivity over EP300 ([9]; BROMOscan, compared to BRD4 BD1 pKd 8.1): 1200 fold
- Kd [10]: 20 µM
- Kd [11]: > 31.6 µM
- Kd [12]: > 31.6 µM
- Kd [13]: > 31.6 µM
- Kd [14]: > 31.6 µM
- pXC50 Alpha 2C Adrenoceptor agonist [15]: < 4.0
- pXC50 Beta2 Adrenoceptor Human Agonist [16]: < 4.0
- pXC50 5-HT3 Agonist [17]: < 4.3
- pXC50 Dopamine D2 Agonist [18]: < 4.0
- pXC50 M1 Agonist [19]: < 4.3
- pXC50 5-HT2C Agonist [20]: < 4.0
- pXC50 Alpha 1 nAChR Antagonist [21]: < 4.2
- pXC50 OPRM1 Agonist [22]: < 4.0
- pXC50 Kv1.5 (KCNA5) blocker [23]: < 4.3
- pXC50 Acetylcholinesterase (AChE) antagonist [24]: < 4.0
- pXC50 NET blocker [25]: < 4.0
- pXC50 PDE4B antagonist [26]: < 4.0
- pXC50 Monoamine Oxidase A antagonist [27]: < 4.0
- pXC50 M1 antagonist [28]: < 4.3
- BD1 domain selectivity over BD2 across the four isoforms ([29]; TR-FRET BRD2, BRD3, BRD4, BRDT): at least 400 fold
- BET BD1 domain selectivity ([29]; depending on protein and assay format): 300–1000 fold
- pKa [30]: 9.6
- PFI (property forecast index) ([31]; chromLogDpH7.4 + number of aromatic rings): 4.7
- chromatographic logD ([31]; pH 7.4): 1.7
- pXC50 BSEP inhibitor [32]: < 3.7
- pXC50 OATP1B1 inhibitor [33]: < 4.3
- pXC50 Phospholipoidosis induction [34]: < 4
